The values that follow come from patent publication US20240261294A1, “METHOD FOR TREATING IDH INHIBITOR-RESISTANT SUBJECTS” (Eli Lilly and Company, priority 2021, published 2024).

In one test the target is T1, IDH2 R172W (Homo sapiens, UniProt P48735, R172W).
T1 construct: expressed in transfected cells; host or cells: U-87 MG
T1 sequence (P48735 40-452 R172W): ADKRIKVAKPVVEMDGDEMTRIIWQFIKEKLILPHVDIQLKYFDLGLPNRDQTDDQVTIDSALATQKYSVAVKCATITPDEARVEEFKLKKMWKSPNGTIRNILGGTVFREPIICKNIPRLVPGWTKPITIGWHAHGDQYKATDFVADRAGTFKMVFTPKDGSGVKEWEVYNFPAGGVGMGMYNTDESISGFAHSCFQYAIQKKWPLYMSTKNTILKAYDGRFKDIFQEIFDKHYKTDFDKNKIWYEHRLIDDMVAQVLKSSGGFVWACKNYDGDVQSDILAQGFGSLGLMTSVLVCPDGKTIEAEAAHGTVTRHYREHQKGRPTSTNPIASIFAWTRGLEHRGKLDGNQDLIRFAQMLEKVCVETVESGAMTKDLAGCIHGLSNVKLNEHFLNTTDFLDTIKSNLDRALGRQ
Put plainly: Inhibition of 2-HG production in IDH2 mutant U-87 MG cells. It counts as cell-based. The conditions noted are these: read-out: Relative IC50 (nM) Mean, inhibition of 2-HG production.

In another test the target is T2, IDH2 R140L_Q316E trans (Homo sapiens, UniProt P48735, Q316E/R140L).
T2 construct: expressed in transfected cells; host or cells: U-87 MG
T2 sequence (P48735 40-452 R140L): T1 sequence (P48735 40-452 R172W) with R101L, W133R
T2 sequence (P48735 40-452 Q316E): T1 sequence (P48735 40-452 R172W) with W133R, Q277E
The description is as above. Type of test: cell-based. The conditions noted are these: 16 hours incubation, 50K cells/well, 100 μl media/well, read-out: Relative IC50 (nM) Mean, inhibition of 2-HG production.

Substitutions are numbered along the chain they refer to. Where two headings read alike, the source gives them in different places.

A word on the IC50: it is the midpoint of a concentration-inhibition curve.

On to `C=CC(=O)N1CCN([C@@H](CC2CC2)c2ccc([C@H](C)Nc3ncc4c(n3)N(CC)C(=O)OC4)cc2)CC1` [Compound A, 7-[[(1S)-1-[4-[(1S)-2-cyclopropyl-1-(4-prop-2-enoylpiperazin-1-yl)ethyl]phenyl]ethyl]amino]-1-ethyl-4H-pyrimido[4,5-d][1,3]oxazin-2-one], for which the IC50 on IDH2 R172W (16 hours incubation, 50K cells/well, 100 μl media/well) was determined as 336 nM; on IDH2 R172W (72 hours incubation, 12.5K cells/well), 47 nM; at IDH2 R140L_Q316E trans, 262 nM.
